The IC50 is the concentration that gives 50% inhibition. A low value points to greater potency. By EC50 is commonly meant the concentration giving half of the maximal effect. The term inhibition denotes the drop in the measured response relative to a control, in per cent.

For assay [1], the system named is bovine papilloma virus type I (BPV-1)-transformed HEF (HEF-BPV). Nature of the assay: Inhibition of bovine papilloma virus, BPV-infected hamster embryo fibroblasts (HEF) cell proliferation assay. The class given is cell-based. As to conditions: HEF-BPV, 72 hr, 37° C., pH 6.8. How it is done:
Briefly, hamster embryo fibroblasts and bovine papilloma virus type I (BPV-1)-transformed HEF (HEF-BPV) were grown in Eagle's basal medium. […] and HEF cells were seeded in 96-well plates at a density of 0.5×10^6 cells per plate in DMEM cell culture medium containing 10% fetal calf serum at pH 6.8. The plates were then incubated in the presence of 5% CO2 in 100% humidity at 37° C. After 6 hr, the cell culture medium in the plates was exchanged with fresh DMEM cell culture medium containing test compounds at a series of concentrations. The plates were incubated at 37° C. for additional 72 hr. Cells in the plates were then washed with PBS, fixed with 3% formaldehyde solution containing 0.9% NaCl for 1 min, washed by water for 10 sec, and dried overnight. For detection, the plates were stained with crystal violet solution for 5 min at room temperature, washed 5 times with water, and dried at room temperature overnight. After adding ethanol/acetic acid (99:1, v/v, […]) to each well, the plates were measured at 595 nm using an ELISA reader.

Assay [2] deals with HPV-31-infected CIN612 9E keratinocytes. Description: Short-term study, effect on cell proliferation of HPV-31-infected keratinocytes. The class given is cell-based, human papilloma virus. As to conditions: Human papillomavirus, Keratinocyte; 72 hrs, 37° C.; 50% of uninhibited growth. How it is done:
(§1) The inhibitory activities of optically active (−)-enantiomer 1A against human papilloma virus were evaluated using HPV-31-infected CIN612 9E keratinocytes (Meyers et al., Science 1992, 257, 971-973).
Effect on cell proliferation. HPV-31 infected cells were seeded in 96-well plates containing 1×10^6 mitomycin C treated 3T3 cells (1×10^4 cells/well), at a density of 0.5×10^6 cells per plate (0.5×10^4 cells/well) in E medium. After the plates were incubated in a CO2 incubator under 5% CO2 at 37° C. in 100% humidity for six hrs, the cell culture medium was removed and fresh E medium containing 0.85 g/L NaHCO3 and a test compound at a series of concentrations (0, 0.5, 1, 2, 4, 8, 16, 32, 64, and 128 μg/mL), or positive control (interferon γ at 200 IU/mL) was added. […] After the plates were dried on blotting paper upside down overnight, 0.1 mL of ethanol/acetic acid (99:1) was added to each well and optical density at 595 nm was determined in an ELISA reader.
Dose response curves were established by plotting growth against concentrations of the test compound or control. ICso values were determined from the dose response curves from crossing points of the dose response curves with a line parallel to the x-axis corresponding to 50% of uninhibited growth.

The test system of assay [3] is HPV-31 specific RNA in HPV-31-infected CIN612 9E keratinocytes. Description: Short-term study, inhibition of HPV-31 specific RNA expression (Northern Blot). The class given is cell-based, human papilloma virus. As to conditions: Human papillomavirus, Keratinocyte; 72 hrs, 37° C. How it is done: as §1
(§2) Effect on HPV-31 specific DNA and RNA. HPV-31 infected cells (3×10^6) were dispensed into 14.5 cm dishes containing fresh E culture medium and 1×10^6 mitomycin C-treated J2 3T3 fibroblast feeders. After 6 hrs, fresh medium containing 0.85 g/L NaHCO3 and a test compound at a series of concentrations (0, 0.5, 1, 2, 4, 8, 16, and 32 μg/mL) were added. All samples were tested in duplicates at each concentration. After incubation at 37° C. for 72 hrs, the feeder cells were removed with 4 mM EDTA, and DNA and RNA was then isolated. The isolated DNA and RNA were analyzed in Southern and Northern Blot gels for HPV-31 specific sequences. Human A431 epithelial cancer cells were used as HPV-uninfected negative control. X-ray films were scanned and optical densities of HPV-31 specific DNA and major mRNA species were integrated.
(§3) Dose response curves were established by plotting integrated values against the concentrations of the test compound.

The test system of assay [4] is HPV-31 specific DNA in HPV-31-infected CIN612 9E keratinocytes. Nature of the assay: Short-term study, inhibition of HPV-31 specific DNA (Southern Blot). As to conditions: Human papillomavirus, Keratinocyte; at 32 μg/mL, 72 hrs. The class given is cell-based, human papilloma virus. As for the experimental part: as §1, §2, §3
For assay [5], the system named is CIN 612 9E cells. Nature of the assay: Long-term study, cell morphology. The class given is cell-based, human papilloma virus. The conditions noted are these: 10 μg/mL, after five passages. How it is done:
HPV-31 infected cells (3×10^6) were dispensed into 14.5 cm dishes containing fresh E medium and 1×10^6 cells of mitomycin C-treated 3T3 fibroblast feeders. The dishes were incubated in a CO2 incubator under 5% CO2 at 37° C. in 100% humidity. Human A431 epithelial cancer cells were used as HPV-uninfected negative controls. After 6 hr incubation, the cell culture medium was removed and fresh E medium containing 0.85 g/L NaHCO3 and a test compound at concentrations of 10 and 3.3 μg/mL, or control (interferon γ at 200 IU/mL) were added. For each concentration, 4 dishes were prepared. The dishes were incubated at 37° C. in a CO2 incubator. The culture medium was replaced to new E medium containing each concentration of the test compound or control in every 72 hrs. After seven days, or when untreated cells became confluent, one dish of each group was harvested for DNA/RNA extraction, followed by Southern/Northern Blot analysis; and one dish was trypsinized, cell number were determined and cells were seeded in three new dishes, treated and cultured as described above. This procedure was repeated for 9 passages. During these passages, morphology of cells and cell density were monitored.

The structures appear in SMILES notation. Converted amounts (≈) assume the structure as drawn. “Also recorded” adds a separate entry of the source.

Take `S=C(S)OC1CC2CC1C1CCCC21` (single isomer, unassigned; (-)) [(−)-Enantiomer 1A, (−)-O-exo/C-exo-tricyclo[5.2.1.0^2,6]-dec-9-yl-xanthic acid]: the values for the IC50 in assay [1] and in assay [3] were 11.07 ± 0.18 µg/mL (≈ 48.5 µM) and 10.7 µg/mL (≈ 46.9 µM), respectively. Moreover, the EC50 in assay [2] came to 16 µg/mL (≈ 70.1 µM). Further, in assay [4], the inhibition at 32 µg/mL came to 37.5%. In addition, the morphology of cells entry in assay [5] is given as “notable change in the morphology; also recorded: growing more organized like untransformed keratinocytes; also recorded: contact inhibited when cultures grew to confluency; also recorded: acquired a flat round shape”.
